Reference: patent US5932556A, “Methods and compositions for regulation of CD28 expression” (priority 1995, dated 1999)

Columns and labels:
[1] = tested on: CD28 expression in anti-CD3/PMA-activated human T-cells; assay: Activation-induced CD28 surface expression, immunofluorescence analysis; assay type: cell-based; details: for Relative inhibition of expression, CD28: anti-CD3/PMA-activated peripheral human T cells, relative to the activity of 5 μM RT03S (100%); for loss of inhibitory activity relative to RT03S: G to C substitutions within both four G regions
Procedure: (§1) Prior to the addition of human peripheral T-cells or T-cell lymphoma cell lines (0.2-0.3×10^6), duplicate 96-well microtitre plates were pre-coated with purified anti-CD3 monoclonal antibody (mAb) (6.25-200 ng/well) (clone HIT 3a, Pharmingen, San Diego, Calif.) and washed twice with cold phosphate-buffered saline, pH 7.4 (PBS). Anti-CD3 mAb-treated T-cells were further activated by the addition of 2 ng phorbol 12-myristate 13-acetate (PMA) (Calbiochem, La Jolla, Calif.) and incubated for 48 h at 37° C. Anti-CD3/PMA-activated T-cells were treated with 1-20 μM CD28-specific and control oligonucleotides immediately following activation and re-treated 24 h later. T-cells from one duplicate plate was used for immunofluorescence analysis and the supernatants used for cytokine studies and the second plate was used for T-cell proliferation analysis.
Following activation, […] cell supernatant from the first duplicate microplate was transferred to another microplate for analysis of cell-derived cytokine production. The remaining cells were washed twice with isotonic saline solution, pH 7.4 (Becton Dickinson, Mansfield, Mass.) and resuspended in […] isotonic saline solution and split into two samples. One sample aliquot was co-stained with either PE-CD28/FITC-CD4 or PE-CD54/FITC-CD25 mAb and non-specific fluorescence was assessed by staining the second aliquot with PE/FITC-labeled isotype-matched control monoclonal antibody. All fluorescence-labeled monoclonal antibodies were obtained from Becton Dickinson (San Jose, Calif.). Incubations were performed in the dark at 4° C. for 45 min using saturating mAb concentrations. Unincorporated label was removed by washing in PBS prior to the analysis with a FACScan flow cytometer (Becton Dickinson). Antigen density was indirectly determined in gated live cells and expressed as the mean channel of fluorescence (MCF). Surface expression of specific antigens (CD54, CD25) was represented as the mean channel shift (MCS) obtained by subtracting the MCF of FITC- or PE-labeled isotype-matched (IgG1) control mAb-stained cells from the MCF of FITC- or PE-labeled antigen-specific mAb stained cells. Alternatively, surface expression of the CD4^+ -subset of cells stained with CD28 mAb was determined by subtracting the MCF of […]. The viability of control untreated and oligonucleotide-treated cells were determined in each batch of all oligonucleotides in multiple donors by staining with the vital dye, propidium iodide (5 μg/ml final concentration). The percentage of live cells which excluded propidium iodide was determined by flow cytometry and was >90% (range 90-99%) following treatment with all batches of all oligonucleotides at a dose range of 1-20 μM (FIG. 2).
(§2) Peripheral blood mononuclear cells (PBMCs) were isolated from healthy donors by density gradient centrifugation followed by T cell enrichment using Lymphokwik (One Lambda). Contaminating monocytes were removed by adherence to plastic. Purified T cells were >99% CD2^+, <1% HLA-DR^+ and <5% CD25^+. Jurkat E6-1 (CD28^+ /CD4^+) T cells and HUT 78 (CD28^- /CD4^+) T cells and the monocytic cell line, THP were obtained from ATCC. Cells were cultured at a concentration of 0.2-0.3×10^6 /well and activated with plate-immobilized anti-CD3 monoclonal antibody (mAb) (HIT3A 0.25 μg/ml) (Pharmingen) and 2 ng phorbol 12-myristate 13-acetate (PMA) (Calbiochem).
Cells were co-stained with either PE-CD28/FITC-CD4 or PE-CD54/FITC-CD25 mAb or with PE/FITC-labeled isotype-matched controls (Becton Dickinson). Cell surface antigen density (CD28, CD54, CD25) was confirmed by flow cytometry (FACScan, Becton Dickinson). Viability was assessed by propidium iodide (5 μg/ml) exclusion in control untreated and oligo-treated CD4^+ cells from multiple donors and was typically >90% (range 90-99%) following 48 h incubation with 1-10 μM of each batch of all oligonucleotides.

[2] = tested on: IL-2 production in Jurkat E6-1 cells; assay: IL-2 production in activated Jurkat cells; assay type: cell-based, human; details: activated IL-2 production in Jurkat T cells; relative to the activity of 5 μM RT03S (100%)
Procedure: The T-cell lymphoma cell lines, Jurkat E6-1 (CD28+/CD4+) cells (152-TIB) and HUT 78 (CD28-/CD4+) cells (TIB-161) (ATCC, Rockville, Md.) were maintained in RPMI-10 (RPMI-1640 medium containing […] HEPES buffer, pH 7.4, 10% fetal calf serum (FCS) (Hyclone, Logan, Utah), 1% L-glutamine and 1% penicillin/streptomycin).
as §1
Cell-derived human cytokine concentrations were determined in cell supernatants from the first duplicate microplate. Mitogen-induced changes in interleukin-2 (IL-2) levels were determined using a commercially available ELISA kit (R & D systems Quantikine kit, Minneapolis, Minn.) or by bioassay using the IL-2-dependent cell line, CTLL-2 (ATCC, Rockville, Md.). Mitogen-induced changes in interferon-gamma and interleukin-8 (IL-8) levels were determined by ELISA using kits from Endogen (Cambridge, Mass.) and R & D systems (Quantikine kit, Minneapolis, Minn.) respectively. All ELISA results were expressed as pg/ml and the CTLL-2 bioassay as counts per minute representing the IL-2 -dependent cellular incorporation of ^3 H-thymidine (ICN, Costa Mesa, Calif.) by CTLL-2 cells.
as §2
Proliferative responses were assessed by measuring ^3 H-thymidine (1 μCi, ICN) incorporation for the last 16 h of each assay. Cells were harvested onto filters and DNA synthesis was measured following scintillation counting on a Wallac Betaplate counter. Cytokine concentrations in culture supernatants were assayed using ELISA kits for IL-2, IL-8 (R & D Systems) and IFN-γ (Endogen) or by bioassay using the IL-2 -dependent cell line, CTLL-2 (ATCC).

[3] = molecular target: CD3 (T-cell receptor/CD3 complex) on human T cells (human)
[4] = molecular target: CD3 (T-cell receptor/CD3 complex) on human T cells (human); remark: listed apart in the source

| surface expression of CD28 (immunofluorescence, MCS) [3] [MCS] | incorporation of 3H-thymidine (T-cell proliferation) (counts per minute) [4] | Substance | Relative inhibition of expression, CD28 [1] [%] | Relative inhibition of expression, IL-2 [2] [%] | loss of inhibitory activity relative to RT03S ([1]; range over the named group) | reduction of relative bioactivity ([1]; insertion or deletion of bases separating the sets of G's, range over the named group) |
| --- | --- | --- | --- | --- | --- | --- |
| – | – | RT05S: TTG GAG GGG GAG GAG GGG, SEQ ID NO: 51 (DNA TTGGAGGGGGAGGAGGGG; chemistry not given here) | 136 | 100 | – | – |
| – | – | RT06S: TTC CAG CCC CTC CTC CCC, SEQ ID NO: 64 (DNA TTCCAGCCCCTCCTCCCC; chemistry not given here) | 29 | 22 | – | – |
| – | – | RT09S: TTG GAG GGG GAG GTG GGG, SEQ ID NO: 52 (DNA TTGGAGGGGGAGGTGGGG; chemistry not given here) | 126 | 100 | – | – |
| – | – | RT10S: TTG GAG GCG GTG GTG GCG, SEQ ID NO: 53 (DNA TTGGAGGCGGTGGTGGCG; chemistry not given here) | 31 | 38 | 56-69% | – |
| – | – | RT11S: GGG GAG GAG GGG CTG GAA, SEQ ID NO: 50, sense sequence, upstream region of the CD28 gene (sense GGGGAGGAGGGGCTGGAA; chemistry not given here) | 100 | 100 | – | – |
| – | – | RT18S: GGG GTG GTG GGG, SEQ ID NO: 57, core 12 mer sequence (DNA GGGGTGGTGGGG; chemistry not given here) | 103 | 120 | – | – |
| – | – | RT19S: G GGG TTG GGG, SEQ ID NO: 58 (DNA GGGGTTGGGG; chemistry not given here) | 30 | 89 | – | 52-70% |
| – | – | RT23S: TTG GAGCCG GTG GTG G, SEQ ID NO: 56 (DNA TTGGAGCCGGTGGTGG; chemistry not given here) | 38 | 57 | 56-69% | – |
| – | – | RT24S: TTG GAG CCG GTG GTG GCC, SEQ ID NO: 54 (DNA TTGGAGCCGGTGGTGGCC; chemistry not given here) | 40 | 57 | 56-69% | – |
| – | – | RT25S: TTG GAG GGG CTC CTC GGG, SEQ ID NO: 55 (DNA TTGGAGGGGCTCCTCGGG; chemistry not given here) | 44 | 25 | 56-69% | – |
| 150 | 302000 | anti-CD3 monoclonal antibody (clone HIT 3a, Pharmingen) | – | – | – | – |
